The values below come from patent US8058243B2, “Method for treating a brain cancer with ifenprodil” (HSC Research and Development Limited Partnership, priority 2006, dated 2011).

The assay relates to murine neural precursor cells (neurosphere cultures). Description: HTS of LOPAC library against secondary neurosphere cultures, MTT proliferation assay at 3 μM, day 7 (z score, P value). The class given is cell-based, mouse. (Tetrazolium assays rely on reduction of a dye to a coloured formazan, in cell work by metabolically active cells.)
The mark [1] stands for this setting: LOPAC primary screen, neurosphere MTT proliferation, 3 μM, day 7.
Where [2] appears, read: yes/no: significantly inhibited neurosphere proliferation (P<0.01) in primary screen.
[3] abbreviates: yes = significantly inhibited neurosphere proliferation (P<0.01) in the primary screen.
Setting [4] is: LOPAC screen, neurosphere MTT proliferation, 3 μM, day 7.
[5] abbreviates: yes/no: significantly inhibited neurosphere proliferation (P<0.01) in the primary screen.
The mark [6] stands for this setting: LOPAC library screen at 3 μM, secondary neurosphere cultures, MTT.
[7] abbreviates: yes/no: significantly inhibited neurosphere proliferation in primary screen.
Where [8] appears, read: primary LOPAC screen, 3 μM, MTT, neurosphere proliferation.
The mark [9] stands for this setting: yes/no: significantly inhibited neurosphere proliferation in the primary screen.
[10] abbreviates: LOPAC library screen, 3 μM, MTT, neurosphere cultures.
Setting [11] is: LOPAC library screen, 3 μM, MTT, secondary neurosphere cultures, day 7.

Where a name gives a salt, the structure may show the parent alone. Read-outs that look alike come from different tables or passages of the source.

Regarding `OC[C@H]1O[C@@H](n2cnc3c(N[C@H]4CC5CCC4C5)ncnc32)[C@H](O)[C@@H]1O` (stereo partly drawn) [(S)-ENBA], the “Z Score” value is 0.2078. Further, the Z score under setting [1] is recorded as 0.208. Further, the Activity result under setting [2] is given as “no”.
`C[C@](N)(CCP(=O)(O)O)C(=O)O.Cl` [(S)-MAP4 hydrochloride]: the “Z Score” value is −0.5525. Under setting [1], the Z score is on record as −0.553. Moreover, the Activity entry under setting [3] was “no”.
In the case of `C/C=C1\C(=O)C[C@H]2[C@@H]3CCC4=CC(=O)CC[C@]4(C)[C@H]3CC[C@]12C` [(Z)-Gugglesterone], the “Z Score” value was determined as 3.205. The compound further had a Z score under setting [4] of 3.205. In addition, the Activity entry under setting [2] was “no”.
As to `COc1ccc2c3c1O[C@H]1C(=O)CC[C@@]4(O)[C@@H](C2)N(CC2CC2)CC[C@]314.Cl` [(−)-3-Methoxynaltrexone hydrochloride], the “Z Score” value is recorded as 0.5963. Under setting [1], the Z score amounted to 0.596. The Activity entry under setting [5] is recorded as “no”.
In the case of `CNC[C@H](O)c1ccc(O)c(O)c1.O=C(O)C(O)C(O)C(=O)O` [(−)-Epinephrine bitartrate], under setting [6], the “Z Score” value is recorded as −0.5304. The Z score under setting [1] is given as −0.530. Under setting [2], the Activity entry is reported as “no”.
For the compound `C=C(C)[C@@H]1CC=C(C(=O)O)CC1` [(−)-Perilic acid], under setting [1], the Z score is listed as −1.321. The Activity result under setting [7] was “no”.
Turning to `CNC(=O)Oc1ccc2c(c1)[C@]1(C)CCN(C)[C@@H]1N2C` [(−)-Physostigmine], the “Z Score” value is recorded as −0.2178. The compound also yielded a Z score under setting [1] of −0.218. Further, the Activity entry under setting [2] was “no”.
For `C[N+]1(C)[C@@H]2C[C@@H](OC(=O)[C@H](CO)c3ccccc3)C[C@H]1[C@@H]1O[C@@H]12.[Br-]` [(−)-Scopolamine methyl bromide], the “Z Score” value is −0.8468. The Z score under setting [1] is recorded as −0.847. Further, the Activity result under setting [7] is on record as “no”.
Turning to `Cl.c1ccc([C@H]2CN3CCSC3=N2)cc1` [(−)-Teramisole hydrochloride], under setting [1], the Z score was −1.866. In addition, the Activity result under setting [2] is “no”.
Regarding `Cl.NC[C@@H]1O[C@H](C23CC4CC(CC(C4)C2)C3)Cc2c1ccc(O)c2O` [A-77636 hydrochloride], the “Z Score” value is listed as 1.44. Under setting [8], this compound returned a Z score of 1.440. Further, the Activity result under setting [9] is given as “no”.
As to `CCS(=O)(=O)Nc1cccc(C(=C2CCCCC2)c2cnc[nH]2)c1` [A-315456], the “Z Score” value was determined as 0.3628. In addition, under setting [1], the Z score worked out at 0.363. Besides, the Activity entry under setting [3] was “no”.
Take `CC1=C(C)C(=O)C(CCCCC#CCCCC#CCO)=C(C)C1=O` [AA-861]: the “Z Score” value (LOPAC library screen at 3 μM, MTT, secondary neurosphere cultures, screened in singlets) worked out at 1.517. For the same compound, the Z score under setting [8] worked out at 1.517.
As to `CNC(=O)[C@H]1O[C@@H](n2cnc3c(NCc4ccc(N)cc4)ncnc32)[C@H](O)[C@@H]1O` [AB-MECA], the “Z Score” value stood at 0.7604. Under setting [8], this compound showed a Z score of 0.760. Besides, the Activity result under setting [9] is reported as “no”.
As to `O=C(Cc1ccc(Cl)c(Cl)c1)OCCN1CCCC1` [AC 915 oxalate], under setting [6], the “Z Score” value was −0.8903. The Z score under setting [1] is reported as −0.890. Further, the Activity result under setting [5] is “no”.
`CC(C)C1C2CCC(C2)C1N.Cl` (stereo not drawn) [AGN 192403 hydrochloride]: the “Z Score” value is recorded as 0.7032. Moreover, the Z score under setting [8] is given as 0.703. For the same compound, the Activity entry under setting [9] is recorded as “no”.
With `NC1(C(=O)O)CCc2cc(C(=O)O)ccc21` (stereo not drawn) [AIDA], the “Z Score” value was 0.154. Besides, the Z score under setting [8] is on record as 0.154. Also, under setting [9], the Activity result was “no”.
With `O=C(O)CCC/C=C\C[C@@H]1[C@@H](/C=C/[C@H](O)C2Cc3ccccc3C2)[C@@H](F)C[C@@H]1O` [AL-8810], the “Z Score” value is recorded as −1.806. The compound further showed a Z score under setting [8] of −1.806. Moreover, under setting [9], the Activity result is on record as “no”.
With `CCN(CC)c1ncnc2c1ncn2[C@@H]1O[C@H](COP(=O)([O-])OP(=O)([O-])C(Br)(Br)P(=O)([O-])O)[C@@H](O)[C@H]1O.[Na+].[Na+].[Na+]` [ARL 67156 trisodium salt], the “Z Score” value is −0.168. The Z score under setting [8] is reported as −0.168. Besides, the Activity result under setting [9] is recorded as “no”.
Regarding `CC(C)(C)c1o[nH]c(=O)c1CC(N)C(=O)O` (stereo not drawn) [ATPA], the Activity entry is recorded as “no” and the “Z Score” value is recorded as 0.2832. Besides, the Z score under setting [8] is on record as 0.283.
With `CC(C)(C)c1onc(OCP(=O)(O)O)c1CC(N)C(=O)O` (stereo not drawn) [ATPO], the “Z Score” value is −1.68. Besides, the Z score under setting [8] is −1.680. Also, under setting [9], the Activity entry was “no”.
Regarding `CC(N)=O` [Acetamide], for the setting “168 h, 3 µM”, the “Z Score” value is on record as −1.94 and the Z score was −1.940. Moreover, the Activity result under setting [7] was “no”.
Turning to `CC(=O)Nc1nnc(S(N)(=O)=O)s1` [Acetazolamide], the “Z Score” value under setting [10] came to 1.111. The compound further came in with a Z score under setting [1] of 1.111. Moreover, the Activity entry under setting [3] is reported as “no”.
Turning to `CC(=O)c1ccc(S(=O)(=O)NC(=O)NC2CCCCC2)cc1` [Acetohexamide], the “Z Score” value under setting [11] is −2.24. Besides, the Z score under setting [8] is on record as −2.240. The Activity result under setting [9] is on record as “no”.
Regarding `CC(=O)SCC[N+](C)(C)C.[Cl-]` [Acetyithiocholine chloride], the “Z Score” value came to 0.004223.
With `CC(=O)OC(C)C[N+](C)(C)C.[Cl-]` (stereo not drawn) [Acetyl-beta-methylcholine chloride], the “Z Score” value under setting [6] is −0.3382. The same compound displayed a Z score under setting [8] of −0.338. Moreover, the Activity result under setting [9] is “no”.
Turning to `CC(=O)Oc1ccccc1C(=O)O` [Acetylsalicyclic acid], the Z score under setting [8] was −0.481. In addition, the Activity entry under setting [9] was “no”.
Regarding `CC(=O)Oc1ccccc1C(=O)O` [Acetylsalicylic acid], the “Z Score” value under setting [6] is given as −0.4812.
For the compound `CC(=O)SCC[N+](C)(C)C.[Cl-]` [Acetylthiocholine chloride], the Z score under setting [8] amounted to 0.004. For the same compound, the Activity entry under setting [9] is given as “no”.
`CCCCC[C@H](CC(=O)NO)C(=O)N[C@H](C(=O)N1CCC[C@H]1CO)C(C)C` [Actinonin]: for the setting “168 h, 3 µM”, the “Z Score” value is recorded as −3.501 and the Z score is −3.501. In addition, the Activity entry under setting [3] is recorded as “yes”.
`Nc1nc2c(ncn2COCCO)c(=O)[nH]1` [Acyclovir]: under setting [6], the “Z Score” value is −1.215. Under setting [1], this compound gave a Z score of −1.215. In addition, the Activity entry under setting [5] is “no”.
In the case of `NCCNC(=O)Cc1ccc(NC(=O)Cc2ccc(Nc3ncnc4c3ncn4[C@@H]3O[C@H](CO)[C@@H](O)[C@H]3O)cc2)cc1` [Adenosine amine congener], under setting [6], the “Z Score” value is listed as −0.3345. Moreover, the Z score under setting [8] is −0.334. Further, the Activity result under setting [9] is reported as “no”.
Taken in the same sequence, the figures for `Nc1ncnc2c1ncn2[C@@H]1O[C@H](CO)[C@@H](O)[C@H]1O` [Adenosine] were −0.2086, −0.209 and “no”.
On to `N=C(N)NCCCCN.O=S(=O)(O)O` [Agmatine sulfate], for which the “Z Score” value under setting [10] turned out to be 0.5881. Besides, the Z score under setting [1] was 0.588. Further, under setting [3], the Activity entry is on record as “no”.
As to `CC1=C[C@@H]2c3cccc4[nH]cc(c34)C[C@H]2N(C)C1` [Agroclavine], the “Z Score” value is −0.9109. The same compound gave a Z score under setting [8] of −0.911. Also, the Activity result under setting [9] is recorded as “no”.
With `CC(N)C(=O)OC(C)(C)Cc1ccc(Cl)cc1` (stereo not drawn) [Alaproclate hydrochloride], where the note is “168 h, 3 µM”, the “Z Score” value is listed as −0.1725 and the Z score is given as −0.172. In addition, the Activity entry under setting [9] is listed as “no”.
As to `Oc1ncnc2[nH]ncc12` [Allopurinol], under setting [10], the “Z Score” value turned out to be 0.1473. The same compound showed a Z score under setting [8] of 0.147. The Activity entry under setting [9] is “no”.
In the case of `O=c1nc2[nH]c3ccccc3nc-2c(=O)[nH]1` [Alloxazine], under setting [6], the “Z Score” value is −0.4424. For the same compound, the Z score under setting [8] is on record as −0.442. In addition, under setting [9], the Activity result is recorded as “no”.
Consider `C=CCc1ccccc1OCC(O)CNC(C)C` (stereo not drawn) [Alprenolol hydrochloride], for which the “Z Score” value under setting [11] is on record as −2.143. This compound also came in with a Z score under setting [8] of −2.143. The Activity result under setting [9] is “no”.
Consider `CN(C)c1nc(N(C)C)nc(N(C)C)n1` [Altretamine], for which the “Z Score” value under setting [11] is recorded as −1.322. Under setting [8], the Z score is on record as −1.322. Moreover, the Activity entry under setting [9] is “no”.
Regarding `NC12CC3CC(CC(C3)C1)C2` [Amantadine hydrochloride], the “Z Score” value under setting [6] is recorded as −0.6531. The Z score under setting [8] is reported as −0.653. Besides, the Activity entry under setting [9] is reported as “no”.
On to `CCn1cc(C(=O)O)c(=O)c2ccc(Cc3ccccc3)nc21` [Amfonelic acid], for which the “Z Score” value under setting [10] was determined as 0.488. The Z score under setting [4] is listed as 0.488. For the same compound, the Activity result under setting [2] is listed as “no”.
Take `NCCCNCCSP(=O)(O)O` [Amifostine]: for the setting “168 h, 3 µM”, the “Z Score” value worked out at 0.3592 and the Z score was 0.359. The Activity entry under setting [3] is listed as “no”.
As to `N=C(N)NC(=O)c1nc(Cl)c(N)nc1N` [Amiloride hydrochloride], the “Z Score” value under setting [6] is recorded as −0.7992. The same compound returned a Z score under setting [1] of −0.799. Under setting [5], the Activity entry is listed as “no”.
`CN1[C@@H]2CC[C@H]1C[C@@H](OC(c1ccccc1)c1ccccc1N)C2` (stereo partly drawn) [Aminobenztropine]: the “Z Score” value under setting [11] is −1.455. Also, the Z score under setting [1] was −1.455. For the same compound, under setting [5], the Activity entry is “no”.
Take `NN=C(N)N.NN=C(N)N.O=S(=O)(O)O` [Aminoguanidine hemisulfate]: the Activity result is given as “no”, the “Z Score” value was −1.219 and the Z score is −1.219.
`N=C(N)NN` [Aminoguanidine hydrochloride]: the “Z Score” value under setting [10] is −0.000731. Besides, the Z score under setting [8] was −0.001. Moreover, the Activity result under setting [9] is reported as “no”.
